# Test results: US20260085067A1, “CYCLIC SULFONAMIDE RIBONUCLEOTIDE REDUCTASE (RNR) INHIBITORS AND USES THEREOF” (Boundless Bio, Inc., priority 2022, published 2026)
# Tests used:
# human hepatocytes = assay: Human hepatocyte stability assay; type: in vitro ADME; details: 0.5×10^6 viable cells/ml, time points 0.5 and 60 minutes
# Experimental: 1. 10 mM stock solutions of test compounds and positive control were prepared in DMSO. Thawing medium and supplement incubation medium (serum-free) were placed in a 37° C. water bath for at least 15 minutes prior to use.
# 2. Stock solutions were diluted to 100 μM by combining 198 μL acetonitrile and 2 μL of 10 mM stock solution. Verapamil was use as positive control in the assay.
# 3. Vials of cryopreserved human hepatocytes were removed from storage, while ensuring that vials remain at cryogenic temperatures. The pressure was removed by loosening and re-tightening the cap. The vials were thawed in a 37° C. water bath with gentle shaking. Vials remained in the water bath until all ice crystals had dissolved and were no longer visible. Vials were sprayed with 70% ethanol before being transferred to a biosafety cabinet. Then the contents were poured into a 50 mL thawing medium conical tube. Vials were centrifuged at 100 g for 10 minutes at room temperature. Thawing medium was aspirated and hepatocytes were re-suspended with serum-free incubation medium to yield ˜1.5×10^6 cells/mL.
# 4. Cell viability and density were counted using Cellometer® Vision, and then cells were diluted with serum-free incubation medium to a working cell density of 0.5×10^6 viable cells/ml.
# 5. Aliquots of 198 μL hepatocytes were dispensed into each well of a 96-well non-coated plate. The plate was placed in the incubator on an orbital shaker at 500 rpm for approximately 10 minutes.
# 6. Aliquots of 2 μL of the 100 μM test compounds or verapamil were added into respective wells of the non-coated 96-well plate to start the reaction. This assay was performed in duplicate. The plate was incubated in the incubator on an orbital shaker at 500 rpm for the designed time points.
# 7.25 μL of contents were transferred and mixed with 5 volumes (125 μL) of cold acetonitrile with IS (100 nM alprazolam, 200 nM caffeine, 100 nM labetalol and 100 nM tolbutamide) to terminate the reaction at time points of 0.5 and 60 minutes. Samples were centrifuged for 30 minutes at 3,220 g. Then transfer 100 μL of the supernatant to new 96-well plates for analysis. Add 100 μL of distilled water to each sample and mix for analysis by LC-MS/MS.
# All calculations were carried out using Microsoft Excel. Peak areas were determined from extracted ion chromatograms. The in vitro half-life (tin) of the parent compound was determined by regression analysis of the percent parent disappearance vs. time curve. • a. The in vitro half-life (in vitro tin) was determined from the slope value: in vitro t1/2=0.693/k • b. Conversion of the in vitro tin (in min) into the in vitro intrinsic clearance (in vitro CLint, in μL/min/10^6 cells) was done using the following equation: […]
# [1] = test system: pCHK1 (S345) in Colo320 DM cells; assay: Alphalisa assay, detection of pCHK1 (S345) in Colo320 DM cells; type: cell-based, human; details: Homo sapiens, COLO 320DM, compound overnight (approximately 16 hours)
# Method in brief: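 Colo320 DM cells plated overnight, then exposed to compound for about 16 h at 37 °C (DMSO <0.5%). Cells lysed and phospho-CHK1 (S345) quantified by AlphaLisa SureFire with sequential 60 min acceptor and donor incubations at room temperature.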
# RNR (RNR1:RNR2 1:1) = molecular target: T1, RNR (RNR1:RNR2 1:1) (Homo sapiens, UniProt P23921); assay: RNR enzyme activity, rapid-fire mass spectrometry (RF/MS) assay; type: biochemical; details: [RNR] 50 nM, 1:1 RNR1:RNR2; CDP 5 μM; ATP 1 mM; 37° C., 45 min; compounds screened up to 50 μM
# T1 sequence (P23921 1-792): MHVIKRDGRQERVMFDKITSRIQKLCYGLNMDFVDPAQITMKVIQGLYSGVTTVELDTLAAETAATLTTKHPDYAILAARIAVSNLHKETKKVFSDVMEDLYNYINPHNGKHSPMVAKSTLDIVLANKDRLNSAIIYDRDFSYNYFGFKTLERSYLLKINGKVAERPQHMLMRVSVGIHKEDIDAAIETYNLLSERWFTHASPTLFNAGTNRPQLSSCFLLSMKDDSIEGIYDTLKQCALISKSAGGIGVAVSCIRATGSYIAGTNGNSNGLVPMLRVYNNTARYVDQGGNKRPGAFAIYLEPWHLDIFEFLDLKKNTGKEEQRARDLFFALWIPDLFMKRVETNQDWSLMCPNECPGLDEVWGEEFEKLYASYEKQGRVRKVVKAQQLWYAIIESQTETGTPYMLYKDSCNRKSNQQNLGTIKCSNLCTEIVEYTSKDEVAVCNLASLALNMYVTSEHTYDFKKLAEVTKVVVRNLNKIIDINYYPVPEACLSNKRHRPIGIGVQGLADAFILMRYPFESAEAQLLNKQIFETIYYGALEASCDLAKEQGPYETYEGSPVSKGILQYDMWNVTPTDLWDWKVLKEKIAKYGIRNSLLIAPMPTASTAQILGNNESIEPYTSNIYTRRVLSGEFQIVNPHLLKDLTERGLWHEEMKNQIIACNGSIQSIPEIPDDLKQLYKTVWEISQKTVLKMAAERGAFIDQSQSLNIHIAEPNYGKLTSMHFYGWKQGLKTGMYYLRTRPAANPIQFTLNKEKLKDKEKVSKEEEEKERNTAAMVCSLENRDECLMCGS
# Method in brief: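 Human RNR (50 nM final, RNR1:RNR2 1:1) pre-incubated 15 min at room temperature, then reacted 45 min at 37 °C with 5 μM CDP and 1 mM ATP, no NADPH. Reaction quenched with 6% HCOOH; product quantified by rapid-fire mass spectrometry.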
Structure (SMILES),Clhep (human hepatocytes),IC50 [1] [nM],IC50 (RNR (RNR1:RNR2 1:1)) [nM]
"Cc1ccc(F)c([C@@H](C)[C@@H](c2n[nH]c(=O)o2)N2CN(C3CCOC(C)(C)C3)c3cc(Cl)ccc3S2(=O)=O)c1C (single isomer, unassigned) [Example 89]",B (10 ml/min/kg < Clhep ≤ 20 ml/min/kg),≤ 1000,
"Cc1ccc(F)c([C@@H](C)[C@@H](c2n[nH]c(=O)o2)N2CN([C@H]3CCOC(C)(C)C3)c3cc(Cl)ccc3S2(=O)=O)c1C (single isomer, unassigned) [Example 90]",B (10 ml/min/kg < Clhep ≤ 20 ml/min/kg),≤ 1000,
"Cc1ccc(F)c([C@@H](C)[C@@H](c2n[nH]c(=O)o2)N2CN(C)c3cc(Cl)ccc3S2(=O)=O)c1C [Example 1, 5-((1S,2R)-1-(6-chloro-4-methyl-1,1-dioxido-3,4-dihydro-2H-benzo[e][1,2,4]thiadiazin-2-yl)-2-(6-fluoro-2,3-dimethylphenyl)propyl)-1,3,4-oxadiazol-2(3H)-one]",A (0 ml/min/kg ≤ Clhep ≤ 10 ml/min/kg),≤ 1000,< 20
"Cc1ccc(F)c([C@@H](C)[C@@H](c2n[nH]c(=O)o2)N2CCOc3cc(Cl)ccc3S2(=O)=O)c1C [Example 2, 5-((1S,2R)-1-(7-chloro-1,1-dioxido-3,4-dihydro-2H-benzo[b][1,4,5]oxathiazepin-2-yl)-2-(6-fluoro-2,3-dimethylphenyl)propyl)-1,3,4-oxadiazol-2(3H)-one]",A (0 ml/min/kg ≤ Clhep ≤ 10 ml/min/kg),1000 to 5000,< 20
"Cc1ccc(F)c([C@@H](C)[C@@H](c2n[nH]c(=O)o2)N2CN(C)c3nc(Cl)ccc3S2(=O)=O)c1C [Example 3, 5-((1S,2R)-1-(6-chloro-4-methyl-1,1-dioxido-3,4-dihydro-2H-pyrido[2,3-e][1,2,4]thiadiazin-2-yl)-2-(6-fluoro-2,3-dimethylphenyl)propyl)-1,3,4-oxadiazol-2 (3H)-one]",B (10 ml/min/kg < Clhep ≤ 20 ml/min/kg),≤ 1000,< 20
"Cc1ccc(F)c([C@@H](C)[C@@H](c2n[nH]c(=O)o2)N2CNc3cc(Cl)ccc3S2(=O)=O)c1C [Example 8, 5-((1S,2R)-1-(6-chloro-1,1-dioxido-3,4-dihydro-2H-benzo[e][1,2,4]thiadiazin-2-yl)-2-(6-fluoro-2,3-dimethylphenyl)propyl)-1,3,4-oxadiazol-2 (3H)-one]",B (10 ml/min/kg < Clhep ≤ 20 ml/min/kg),≤ 1000,20 to 100
"Cc1ccc(F)c([C@@H](C)[C@@H](c2n[nH]c(=O)o2)N2CN(CCN3CCCC3)c3nc(Cl)ccc3S2(=O)=O)c1C [Example 92, 5-((1S,2R)-1-(6-chloro-1,1-dioxido-4-(2-(pyrrolidin-1-yl)ethyl)-3,4-dihydro-2H-pyrido[2,3-e][1,2,4]thiadiazin-2-yl)-2-(6-fluoro-2,3-dimethylphenyl)propyl)-1,3,4-oxadiazol-2 (3H)-one]",A (0 ml/min/kg ≤ Clhep ≤ 10 ml/min/kg),1000 to 5000,
"Cc1ccc(F)c([C@@H](C)[C@@H](c2n[nH]c(=O)o2)N2CN(CCN3CCOCC3)c3nc(Cl)ccc3S2(=O)=O)c1C [Example 93, 5-((1S,2R)-1-(6-chloro-4-(2-morpholinoethyl)-1,1-dioxido-3,4-dihydro-2H-pyrido[2,3-e][1,2,4]thiadiazin-2-yl)-2-(6-fluoro-2,3-dimethylphenyl)propyl)-1,3,4-oxadiazol-2 (3H)-one]",A (0 ml/min/kg ≤ Clhep ≤ 10 ml/min/kg),≤ 1000,
"Cc1ccc(F)c([C@@H](C)[C@@H](c2n[nH]c(=O)o2)N2CN([C@H]3CCN(CCF)C3)c3cc(Cl)ccc3S2(=O)=O)c1C [Example 106, 5-((1S,2R)-1-(6-chloro-4-((S)-1-(2-fluoroethyl)pyrrolidin-3-yl)-1,1-dioxido-3,4-dihydro-2H-benzo[e][1,2,4]thiadiazin-2-yl)-2-(6-fluoro-2,3-dimethylphenyl)propyl)-1,3,4-oxadiazol-2 (3H)-one]",,≤ 1000,< 20
"CON1CN([C@H](c2n[nH]c(=O)o2)[C@H](C)c2c(F)ccc(C)c2C)S(=O)(=O)c2ccc(Cl)cc21 [Example 116, 5-((1S,2R)-1-(6-chloro-4-methoxy-1,1-dioxido-3,4-dihydro-2H-benzo[e][1,2,4]thiadiazin-2-yl)-2-(6-fluoro-2,3-dimethylphenyl)propyl)-1,3,4-oxadiazol-2 (3H)-one]",B (10 ml/min/kg < Clhep ≤ 20 ml/min/kg),≤ 1000,
"Cc1ccc(F)c([C@@H](C)[C@@H](c2n[nH]c(=O)o2)N2CN([C@H](C)CO)c3cc(Cl)ccc3S2(=O)=O)c1C [Example 117, 5-((1S,2R)-1-(6-chloro-4-((R)-1-hydroxypropan-2-yl)-1,1-dioxido-3,4-dihydro-2H-benzo[e][1,2,4]thiadiazin-2-yl)-2-(6-fluoro-2,3-dimethylphenyl)propyl)-1,3,4-oxadiazol-2 (3H)-one]",B (10 ml/min/kg < Clhep ≤ 20 ml/min/kg),1000 to 5000,
"Cc1ccc(F)c([C@@H](C)[C@@H](c2n[nH]c(=O)o2)N2CN(C3CC(=O)C3)c3cc(Cl)ccc3S2(=O)=O)c1C [Example 118, 5-((1S,2R)-1-(6-chloro-1,1-dioxido-4-(3-oxocyclobutyl)-3,4-dihydro-2H-benzo[e][1,2,4]thiadiazin-2-yl)-2-(6-fluoro-2,3-dimethylphenyl)propyl)-1,3,4-oxadiazol-2 (3H)-one]",B (10 ml/min/kg < Clhep ≤ 20 ml/min/kg),≤ 1000,
"Cc1ccc(F)c([C@@H](C)[C@@H](c2n[nH]c(=O)o2)N2CN(O)c3cc(Cl)ccc3S2(=O)=O)c1C [Example 120, 5-((1S,2R)-1-(6-chloro-4-hydroxy-1,1-dioxido-3,4-dihydro-2H-benzo[e][1,2,4]thiadiazin-2-yl)-2-(6-fluoro-2,3-dimethylphenyl)propyl)-1,3,4-oxadiazol-2 (3H)-one]",B (10 ml/min/kg < Clhep ≤ 20 ml/min/kg),1000 to 5000,
"Cc1ccc(F)c([C@@H](C)[C@@H](c2n[nH]c(=O)o2)N2CN([C@@H](C)CO)c3cc(Cl)ccc3S2(=O)=O)c1C [Example 121, 5-((1S,2R)-1-(6-chloro-4-((S)-1-hydroxypropan-2-yl)-1,1-dioxido-3,4-dihydro-2H-benzo[e][1,2,4]thiadiazin-2-yl)-2-(6-fluoro-2,3-dimethylphenyl)propyl)-1,3,4-oxadiazol-2 (3H)-one]",B (10 ml/min/kg < Clhep ≤ 20 ml/min/kg),≤ 1000,
